PubChem BioAssay AID330 (DTP/NCI, 2004)
Where “and” joins values, the source holds several entries; their conditions need not be identical. Identical values can stand only once. Toxic doses and inconclusive results are not listed.

Test system: P388 leukemia ip, CD2F1 mice, survival T/C
Test: NCI In Vivo Anticancer Drug Screen. Data for tumor model P388 Leukemia (intraperitoneal) in CD2F1 (CDF1) mice
Details: endpoint: median survival time, higher = longer survival
How it was run: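 Mice carrying the transplanted tumor received test compound or vehicle. Survival was recorded in each group, and the value is the treated-group measurement divided by that of the vehicle-treated control group.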

[1] = dose: 50.0 mg/kg/injection, schedule: Q01DX005 (ip), vehicle: Klucel (hydroxypropylcellulose) (HPC)
[2] = dose: 100.0 mg/kg/injection, schedule: Q01DX005 (ip), vehicle: Klucel (hydroxypropylcellulose) (HPC)
[3] = dose: 200.0 mg/kg/injection, schedule: Q01DX005 (ip), vehicle: Klucel (hydroxypropylcellulose) (HPC)
[4] = dose: 60.0 mg/kg/injection, schedule: Q01DX005 (ip), vehicle: saline with Tween-80
[5] = dose: 120.0 mg/kg/injection, schedule: Q01DX005 (ip), vehicle: saline with Tween-80
[6] = dose: 240.0 mg/kg/injection, schedule: Q01DX005 (ip), vehicle: saline with Tween-80
[7] = dose: 100.0 mg/kg/injection, schedule: Q01DX009 (ip), vehicle: saline with Tween-80
[8] = dose: 200.0 mg/kg/injection, schedule: Q01DX009 (ip), vehicle: saline with Tween-80
[9] = dose: 400.0 mg/kg/injection, schedule: Q01DX009 (ip), vehicle: saline with Tween-80
[10] = dose: 100.0 mg/kg/injection, schedule: Q04DX002 (ip), vehicle: saline with Tween-80
[11] = dose: 200.0 mg/kg/injection, schedule: Q04DX002 (ip), vehicle: saline with Tween-80
[12] = dose: 400.0 mg/kg/injection, schedule: Q04DX002 (ip), vehicle: saline with Tween-80
[13] = dose: 6.25 mg/kg/injection, schedule: Q01DX009 (ip), vehicle: saline
[14] = dose: 12.5 mg/kg/injection, schedule: Q01DX009 (ip), vehicle: saline
[15] = dose: 50.0 mg/kg/injection, schedule: Q01DX005 (ip), vehicle: saline with Tween-80
[16] = dose: 100.0 mg/kg/injection, schedule: Q01DX005 (ip), vehicle: saline with Tween-80
[17] = dose: 200.0 mg/kg/injection, schedule: Q01DX005 (ip), vehicle: saline with Tween-80
[18] = dose: 100.0 mg/kg/injection, schedule: Q01DX001 (ip), vehicle: Klucel (hydroxypropylcellulose) (HPC)
[19] = dose: 200.0 mg/kg/injection, schedule: Q01DX001 (ip), vehicle: Klucel (hydroxypropylcellulose) (HPC)
[20] = dose: 400.0 mg/kg/injection, schedule: Q01DX001 (ip), vehicle: Klucel (hydroxypropylcellulose) (HPC)
[21] = dose: 50.0 mg/kg/injection, schedule: Q01DX009 (ip), vehicle: saline with Tween-80
[22] = dose: 12.5 mg/kg/injection, schedule: Q01DX009 (ip), vehicle: saline with Tween-80
[23] = dose: 25.0 mg/kg/injection, schedule: Q01DX009 (ip), vehicle: saline with Tween-80

OC1c2ccccc2-c2nc3ccccc3cc21 (stereo unspecified)
T/C [1]: 110 % of control and 92 % of control
T/C [2]: 102 % of control and 86 % of control
T/C [3]: 107 % of control

NC(CC(=O)O)C(F)(F)F (stereo unspecified)
T/C [4]: 99 % of control
T/C [5]: 100 % of control
T/C [6]: 102 % of control

CCC/C=C1/OC(=O)C2=C[C@H]3CC[C@]21[C@]1(OC(=O)C2=C1CCC=C2)[C@H]3CCC
T/C (dose: 7.0 mg/kg/injection, schedule: Q01DX005 (ip), vehicle: Klucel (hydroxypropylcellulose) (HPC)): 104 % of control
T/C (dose: 14.0 mg/kg/injection, schedule: Q01DX005 (ip), vehicle: Klucel (hydroxypropylcellulose) (HPC)): 100 % of control
T/C (dose: 28.0 mg/kg/injection, schedule: Q01DX005 (ip), vehicle: Klucel (hydroxypropylcellulose) (HPC)): 106 % of control
T/C (dose: 56.0 mg/kg/injection, schedule: Q01DX005 (ip), vehicle: Klucel (hydroxypropylcellulose) (HPC)): 97 % of control

CN(NC(=O)CCl)c1ccc([N+](=O)[O-])cc1[N+](=O)[O-]
T/C [7]: 118 % of control
T/C [8]: 108 % of control
T/C [9]: 94 % of control

C=Cc1cncc2c1CCOC2=O
T/C (dose: 3.75 mg/kg/injection, schedule: Q01DX005 (ip), vehicle: Klucel (hydroxypropylcellulose) (HPC)): 86 % of control
T/C (dose: 7.5 mg/kg/injection, schedule: Q01DX005 (ip), vehicle: Klucel (hydroxypropylcellulose) (HPC)): 93 % of control
T/C (dose: 30.0 mg/kg/injection, schedule: Q01DX005 (ip), vehicle: Klucel (hydroxypropylcellulose) (HPC)): 86 % of control

CC(C)(C)c1ccc(Sc2cccc3c2C(=O)c2c(Sc4cccc(F)c4)cccc2C3=O)cc1
T/C [10]: 99 % of control
T/C [11]: 89 % of control
T/C [12]: 95 % of control

C1CC2CCC(N3CCCC3)C(C1)C21OCCO1 (stereo unspecified)
T/C [4]: 93 % of control
T/C [5]: 92 % of control

CN(C)CCP(=O)(O)O
T/C (dose: 100.0 mg/kg/injection, schedule: Q01DX001 (ip), vehicle: saline with Tween-80): 95 % of control
T/C (dose: 200.0 mg/kg/injection, schedule: Q01DX001 (ip), vehicle: saline with Tween-80): 100 % of control
T/C (dose: 400.0 mg/kg/injection, schedule: Q01DX001 (ip), vehicle: saline with Tween-80): 100 % of control

Cc1nnc(NC(=O)c2cc(=O)c3ccccc3o2)s1
T/C [10]: 99 % of control
T/C [11]: 94 % of control
T/C [12]: 93 % of control

CCOC(=O)C(CC)(COCc1ccccc1)C(=O)OCC
T/C (dose: 50.0 mg/kg/injection, schedule: Q01DX009 (ip), vehicle: other): 100 % of control
T/C (dose: 100.0 mg/kg/injection, schedule: Q01DX009 (ip), vehicle: other): 100 % of control
T/C (dose: 200.0 mg/kg/injection, schedule: Q01DX009 (ip), vehicle: other): 100 % of control

N#CN=CN1CC2CCC(CC2)C1
T/C (dose: 3.13 mg/kg/injection, schedule: Q01DX009 (ip), vehicle: saline): 98 % of control
T/C [13]: 102 % of control
T/C [14]: 92 % of control

O=[N+]([O-])OC1CCCC(O[N+](=O)[O-])c2c1n([O-])c1ccccc1[n+]2=O (stereo unspecified)
T/C [15]: 95 % of control
T/C [16]: 89 % of control
T/C [17]: 92 % of control

CC(NNC(=S)N1CCCC1)c1ccccn1 (stereo unspecified)
T/C [15]: 107 % of control
T/C [16]: 105 % of control

CCCCCCCC(=O)NN(Cn1c(=S)sc2ccccc21)Cn1c(=S)sc2ccccc21
T/C [1]: 96 % of control
T/C [2]: 88 % of control
T/C [3]: 88 % of control

O=c1ccc2c(O)c3ccoc3cc2o1
T/C [18]: 101 % of control
T/C [19]: 111 % of control
T/C [20]: 106 % of control

COC(=O)C(=O)C1CCc2c(C(=O)OC)nc3nnc(N)n3c21 (stereo unspecified)
T/C [4]: 94 % of control
T/C [5]: 99 % of control
T/C [6]: 87 % of control

Nc1c(S)cc(O)c2c1C(=O)c1ccccc1C2=O
T/C [1]: 99 % of control
T/C [2]: 103 % of control
T/C [3]: 107 % of control

COc1ccc(-c2sc(-c3ccccc3)nc2O)cc1
T/C [21]: 89 % of control
T/C [7]: 89 % of control
T/C [8]: 92 % of control

COc1cccc2c1C(=O)c1c(O)c3c(c(O)c1C2=O)C[C@@](O)(C(=O)CO)C[C@@H]3OC1CC(NCC#N)C(O)C(C)O1 (stereo partly specified)
T/C (dose: 8.0 mg/kg/injection, schedule: Q04DX003 (ip), vehicle: saline + alcohol): 153 % of control
T/C (dose: 32.0 mg/kg/injection, schedule: Q04DX003 (ip), vehicle: saline + Tween-80 + alcohol): 108 % of control
T/C (dose: 32.0 mg/kg/injection, schedule: Q04DX003 (ip), vehicle: saline + alcohol): 117 % of control

O=C1C=C(O)C2CCCCC2N1 (stereo unspecified)
T/C [1]: 99 % of control
T/C [2]: 95 % of control

Cc1cc[n+](C2=C(Nc3ccc(Cl)cc3C)C(=O)c3ccccc3C2=O)cc1
T/C (dose: 12.5 mg/kg/injection, schedule: Q01DX005 (ip), vehicle: saline with Tween-80): 109 % of control
T/C (dose: 25.0 mg/kg/injection, schedule: Q01DX005 (ip), vehicle: saline with Tween-80): 109 % of control
T/C [15]: 119 % of control
T/C [4]: 121 % of control

O=C(O)c1ccccc1-c1ccc2ccccc2c1
T/C [15]: 94 % of control
T/C [16]: 105 % of control
T/C [17]: 110 % of control

Cc1cc(C)c(O)c(C(c2ccccc2)c2cc(C)cc(C)c2O)c1
T/C [21]: 99 % of control
T/C [7]: 118 % of control
T/C [8]: 115 % of control

COc1ccc2c(c1)C1CCN(C)CC1OC2=O (stereo unspecified)
T/C [22]: 92 % of control
T/C [23]: 98 % of control
T/C [21]: 100 % of control and 104 % of control

COc1cc2cc3c(-c4ccccc4)noc3nc2cc1OC
T/C [4]: 106 % of control
T/C [5]: 93 % of control
T/C [6]: 90 % of control

O=c1[nH]c(=O)n(C2CC(O)C(CS)O2)cc1F (stereo unspecified)
T/C [1]: 115 % of control
T/C [3]: 150 % of control and 159 % of control
T/C (dose: 400.0 mg/kg/injection, schedule: Q01DX005 (ip), vehicle: Klucel (hydroxypropylcellulose) (HPC)): 186 % of control

Cc1cccc(Cl)c1NC(=O)CSCCN(C)C
T/C (dose: 60.0 mg/kg/injection, schedule: Q01DX005 (ip), vehicle: Klucel (hydroxypropylcellulose) (HPC)): 106 % of control
T/C (dose: 120.0 mg/kg/injection, schedule: Q01DX005 (ip), vehicle: Klucel (hydroxypropylcellulose) (HPC)): 103 % of control

O=C(SCNS(=O)(=O)c1ccccc1)c1ccccc1
T/C [18]: 111 % of control
T/C [19]: 113 % of control
T/C [20]: 114 % of control

COc1cccc(-c2nc(SCC(N)=O)[nH]c(=O)c2C#N)c1
T/C [15]: 112 % of control
T/C [16]: 98 % of control
T/C [17]: 98 % of control

COC(=O)/C=C1\Sc2ccccc2NC1=O
T/C [21]: 96 % of control
T/C [7]: 96 % of control
T/C [8]: 94 % of control

COc1ccc(C2CC(=O)N(c3nccc(C)n3)C(=O)C2)cc1
T/C (dose: 100.0 mg/kg/injection, schedule: Q04DX003 (ip), vehicle: saline): 98 % of control
T/C (dose: 200.0 mg/kg/injection, schedule: Q04DX003 (ip), vehicle: saline): 99 % of control
T/C (dose: 400.0 mg/kg/injection, schedule: Q04DX003 (ip), vehicle: saline): 94 % of control

O=c1c(Cl)cc(Cl)cn1S(=O)(=O)c1ccc([N+](=O)[O-])cc1
T/C [23]: 106 % of control
T/C [21]: 105 % of control
T/C [7]: 100 % of control and 104 % of control
T/C [8]: 104 % of control and 89 % of control
T/C [9]: 89 % of control

COc1cc(C=C2C(=O)C=CC2=O)cc(OC)c1OC
T/C (dose: 1.25 mg/kg/injection, schedule: Q04DX002 (ip), vehicle: saline with Tween-80): 107 % of control
T/C (dose: 2.5 mg/kg/injection, schedule: Q04DX002 (ip), vehicle: saline with Tween-80): 99 % of control
T/C (dose: 5.0 mg/kg/injection, schedule: Q04DX002 (ip), vehicle: saline with Tween-80): 104 % of control

NC(Cc1cc(I)c(O)c(I)c1)C(=O)O (stereo unspecified)
T/C [21]: 110 % of control
T/C [7]: 108 % of control
T/C [8]: 88 % of control

O=C1C=CC(=O)[C@H]2CC=C3OC4OC5(CCCCC5)OC4[C@H]3[C@@H]12 (stereo partly specified)
T/C [5]: 94 % of control
T/C [6]: 97 % of control

Nc1n[nH]c(=O)n1N
T/C [18]: 106 % of control
T/C [19]: 100 % of control
T/C [20]: 107 % of control

OC(/C=C\CC(O)(C(F)(F)F)C(F)(F)F)(C(F)(F)F)C(F)(F)F
T/C (dose: 3.12 mg/kg/injection, schedule: Q01DX009 (ip), vehicle: saline): 100 % of control
T/C [13]: 106 % of control
T/C [22]: 91 % of control
T/C [14]: 93 % of control
